According to patent US20190136321A1, “USE OF TRANSLATIONAL PROFILING TO IDENTIFY TARGET MOLECULES FOR THERAPEUTIC TREATMENT” (The Regents of The University of California, priority 2013, published 2019):

Experiments:
Type in all cases: cell-based, human
[1] = test system: GFP-labeled PC3 cells; assay: Real-time imaging of cell migration; conditions: starting at 6 hr of treatment
Protocol: Real-time imaging of GFP-labeled PC3 cells was performed in poly-D-lysine-coated chamber cover glass slides (Lab-Tek). PC3 GFP cells were plated and allowed to adhere for 24 hr. Wells were wounded with a P200 pipette tip. The chamber slides were imaged with an IX81 Olympus wide-field fluorescence microscope equipped with a CO2- and temperature-controlled chamber and time-lapse tracking system. Images from DIC and GFP channels were taken every 2 min and processed using ImageJ and analyzed for cell migration with Manual Tracking, using local maximum centering correction to maintain a centroid xy coordinate for each cell per frame over time. Tracking data was subsequently processed with the Chemotaxis and Migration tool from ibidi to create xy coordinate plots, velocity, and distance measurements.

[2] = test system: LNCaP and A498 cells; assay: Apoptosis analysis (Annexin V/PI); conditions: 200 nM, 48 hours
From the text: Appropriately treated LNCaP and A498 cells were labeled with Annexin V-FITC (BD Biosciences) and propidium iodide (Sigma) following the manufacturer's instructions. PI/Annexin data was acquired using a BD FACS Caliber (BD Biosciences) and analyzed with FlowJo (v.9.1).

[3] = test system: PC3 cells; assay: Polysome analysis; conditions: 100 nM, 3-hour
Protocol: Cells were re-suspended in PBS containing 100 μg ml^−1 cycloheximide (Sigma) and incubated on ice for 10 min. Cells were centrifuged at 300 g for 5 min at 4° C. and lysed in 10 mM Tris-HCl pH 8, 140 mM NaCl, 5 mM MgCl2, 640 U ml^−1 Rnasin, 0.05% NP-40, 250 μg ml^−1 cycloheximide, 20 mM DTT, and protease inhibitors. Samples were incubated for 20 min on ice, then centrifuged once for 5 min at 3,300 g and once for 5 min at 9,300 g, isolating the supernatant after each centrifugation. Lysates were loaded onto 10-50% sucrose gradients containing 0.1 mg ml^−1 heparin and 2 mM DTT and centrifuged at 37,000 r.p.m. for 2.5 hr at 4° C. The sample was subsequently fractionated on a gradient fractionation system (ISCO). RNA was extracted from all fractions and run on a TBE-agarose gel to visualize 18S and 28S rRNA.

CC(C)n1nc(-c2ccc3oc(N)nc3c2)c2c(N)ncnc21 [ATP site inhibitor of mTOR]
cancer cell migration [1]: inhibited
programmed cell death in multiple cancer cell lines [2]: induced
association of YB1 and rpS19 mRNAs in polysome fractions [3]: differential association
β-actin mRNA association in polysome fractions [3]: no change
